Columns and labels:
ABUTH [1] = assay: Post-emergence herbicidal action; assay type: in vivo, Abutilon theophrasti; conditions: post-emergence, rated visually after about 3 weeks vs untreated controls
Method: (§1) 2. Post-Emergence Herbicidal Action and Crop Plant Compatibility
(§2) Seeds of monocotyledonous and dicotyledonous weeds and crop plants are placed in sandy loam in plastic or organic planting pots, covered with soil and cultivated in a greenhouse under controlled growth conditions. 2 to 3 weeks after sowing, the test plants are treated at the one-leaf stage. The compounds of the invention, formulated in the form of wettable powders (WP) or as emulsion concentrates (EC), are then sprayed onto the green parts of the plants as aqueous suspension or emulsion with addition of 0.5% additive at a water application rate of […] (converted). After the test plants had been kept in the greenhouse under optimum growth conditions for about 3 weeks, the activity of the preparations is rated visually in comparison to untreated controls. The tables below show the herbicidal activity of numerous compounds according to the invention against important harmful plants. For example, 100% activity=the plants have died, 0% activity=like control plants.

STEME [2] = assay: Post-emergence herbicidal action; assay type: in vivo, Stellaria media; conditions: 80 g/ha, rated visually after about 3 weeks vs untreated controls
Method: as §1, §2

MATIN [3] = assay: Pre-emergence herbicidal action; assay type: in vivo, Matricaria inodora; conditions: pre-emergence, scored visually after about 3 weeks vs untreated controls
Excerpt: (§3) 1. Pre-Emergence Herbicidal Action and Crop Plant Compatibility
(§4) Seeds of monocotyledonous and dicotyledonous weed plants and crop plants are placed in plastic or organic planting pots and covered with soil. The compounds of the invention, formulated in the form of wettable powders (WP) or as emulsion concentrates (EC), are then applied onto the surface of the covering soil as aqueous suspension or emulsion with addition of 0.5% additive at a water application rate of 600 l/ha (converted). After the treatment, the pots are placed in a greenhouse and kept under good growth conditions for the trial plants. After about 3 weeks, the effect of the preparations is scored visually in comparison with untreated controls as percentages. The tables below show the herbicidal activity of numerous compounds according to the invention against important harmful plants. For example, 100% activity=the plants have died, 0% activity=like control plants.

MATIN [4] = assay: Post-emergence herbicidal action; assay type: in vivo, Matricaria inodora; conditions: 80 g/ha, rated visually after about 3 weeks vs untreated controls
Method: as §1, §2

SETVI [5] = assay: Post-emergence herbicidal action; assay type: in vivo, Setaria viridis; conditions: rated visually after about 3 weeks vs untreated controls
Method: as §1, §2

PHBPU = assay: Post-emergence herbicidal action; assay type: in vivo, Ipomoea purpurea; conditions: 80 g/ha, rated visually after about 3 weeks vs untreated controls
Method: as §1, §2

ECHCG = assay: Post-emergence herbicidal action; assay type: in vivo, Echinochloa crus-galli; conditions: rated visually after about 3 weeks vs untreated controls
Method: as §1, §2

AMARE [6] = assay: Post-emergence herbicidal action; assay type: in vivo, Amaranthus retroflexus; conditions: rated visually after about 3 weeks vs untreated controls
Method: as §1, §2

SETVI [7] = assay: Pre-emergence herbicidal action; assay type: in vivo, Setaria viridis; conditions: pre-emergence, 320 g/ha, scored visually after about 3 weeks vs untreated controls
Excerpt: as §3, §4

ABUTH [8] = assay: Pre-emergence herbicidal action; assay type: in vivo, Abutilon theophrasti; conditions: pre-emergence, scored visually after about 3 weeks vs untreated controls
Excerpt: as §3, §4

VERPE [9] = assay: Pre-emergence herbicidal action; assay type: in vivo, Veronica persica; conditions: scored visually after about 3 weeks vs untreated controls
Excerpt: as §3, §4

VERPE [10] = assay: Post-emergence herbicidal action; assay type: in vivo, Veronica persica; conditions: rated visually after about 3 weeks vs untreated controls
Method: as §1, §2

AMARE [11] = assay: Pre-emergence herbicidal action; assay type: in vivo, Amaranthus retroflexus; conditions: scored visually after about 3 weeks vs untreated controls
Excerpt: as §3, §4

VIOTR [12] = assay: Pre-emergence herbicidal action; assay type: in vivo, Viola tricolor; conditions: scored visually after about 3 weeks vs untreated controls
Excerpt: as §3, §4

VIOTR [13] = assay: Post-emergence herbicidal action; assay type: in vivo, Viola tricolor; conditions: rated visually after about 3 weeks vs untreated controls
Method: as §1, §2

STEME [14] = assay: Pre-emergence herbicidal action; assay type: in vivo, Stellaria media; conditions: scored visually after about 3 weeks vs untreated controls
Excerpt: as §3, §4

CYPES = assay: Pre-emergence herbicidal action; assay type: in vivo, Cyperus esculentus; conditions: dosage 320 g/ha, scored visually after about 3 weeks vs untreated controls, 100% = plants have died, 0% = like control plants
Excerpt: as §3, §4

In the case of Cn1nnnc1NC(=O)c1ccc(C(F)F)c2c1OCS2(=O)=O [Example 2-84], the “herbicidal activity ABUTH” value (ABUTH [1]; 80 g/ha) is reported as 90%, the “herbicidal activity STEME” value (STEME [2]) is reported as 100% and the “herbicidal activity MATIN” value (MATIN [3]; 320 g/ha) is reported as 100%. The “herbicidal activity MATIN” value (MATIN [4]) was 100%, the “herbicidal activity SETVI” value (SETVI [5]; 80 g/ha) was 100% and the “herbicidal activity PHBPU” value (PHBPU) was 90%. For the same compound, the “herbicidal activity ECHCG” value (ECHCG; 80 g/ha) was 90%, the “herbicidal activity AMARE” value (AMARE [6]; 80 g/ha) was 100% and the “herbicidal activity SETVI” value (SETVI [7]) was 90%. The “herbicidal activity ABUTH” value (ABUTH [8]; 320 g/ha) was 90%, the “herbicidal activity VERPE” value (VERPE [9]; 320 g/ha) was 100% and the “herbicidal activity VERPE” value (VERPE [10]; 80 g/ha) was 100%. The “herbicidal activity AMARE” value (AMARE [11]; 320 g/ha) was 100%, the “herbicidal activity VIOTR” value (VIOTR [12]; 320 g/ha) was 100% and the “herbicidal activity VIOTR” value (VIOTR [13]; 80 g/ha) was 100%. For the same compound, the “herbicidal activity STEME” value (STEME [14]; 320 g/ha) was 90%.

With Cn1nnnc1NC(=O)c1ccc(S(C)(=O)=O)c2c1OCS2 [Example 2-58] the “herbicidal activity ABUTH” value (ABUTH [1]; 20 g/ha) was 80% and the “herbicidal activity AMARE” value (AMARE [6]; 20 g/ha) was 80%.

In the case of COC1Oc2c(C(=O)Nc3nnnn3C)ccc(C(F)(F)F)c2S1 (stereo not drawn) [Example 2-112, 2-methoxy-4-(trifluoromethyl)-1,3-benzoxathiolane-N-(1-methyltetrazol-5-yl)-7-carboxamide], the “herbicidal activity ABUTH” value (ABUTH [1]; 20 g/ha) is reported as 90%, the “herbicidal activity SETVI” value (SETVI [5]; 20 g/ha) is reported as 80% and the “herbicidal activity ECHCG” value (ECHCG; 20 g/ha) is reported as 80%. The “herbicidal activity AMARE” value (AMARE [6]; 20 g/ha) was 80%, the “herbicidal activity ABUTH” value (ABUTH [8]; 80 g/ha) was 100% and the “herbicidal activity VERPE” value (VERPE [9]; 80 g/ha) was 80%. The “herbicidal activity VERPE” value (VERPE [10]; 20 g/ha) was 80%, the “herbicidal activity AMARE” value (AMARE [11]; 80 g/ha) was 90% and the “herbicidal activity VIOTR” value (VIOTR [12]; 80 g/ha) was 100%.

Cn1nnnc1NC(=O)c1ccc(C(F)(F)F)c2c1S(=O)(=O)CS2(=O)=O [Example 2-43] was tested, and the “herbicidal activity MATIN” value (MATIN [3]; 80 g/ha) was 80%, the “herbicidal activity AMARE” value (AMARE [6]; 20 g/ha) was 80% and the “herbicidal activity ABUTH” value (ABUTH [8]; 80 g/ha) was 100%. The “herbicidal activity AMARE” value (AMARE [11]; 80 g/ha) was 100%, the “herbicidal activity VIOTR” value (VIOTR [12]; 80 g/ha) was 100% and the “herbicidal activity VIOTR” value (VIOTR [13]; 20 g/ha) was 90%. For the same compound, the “herbicidal activity STEME” value (STEME [14]; 80 g/ha) was 90%.

Cc1ccc(C(=O)Nc2nnnn2C)c2c1[S+]([O-])CO2 (stereo not drawn) [Example 2-65] was tested, and the “herbicidal activity CYPES” value (CYPES) was 90%, the “herbicidal activity VERPE” value (VERPE [9]; 320 g/ha) was 80% and the “herbicidal activity AMARE” value (AMARE [11]; 320 g/ha) was 90%.

In the case of Cn1nnnc1NC(=O)c1ccc(C(F)F)c2c1OCS2 [Example 2-54], the “herbicidal activity ABUTH” value (ABUTH [1]; 80 g/ha) is reported as 80%, the “herbicidal activity SETVI” value (SETVI [5]; 80 g/ha) is reported as 90% and the “herbicidal activity PHBPU” value (PHBPU) is reported as 80%. The “herbicidal activity ECHCG” value (ECHCG; 80 g/ha) was 100%, the “herbicidal activity AMARE” value (AMARE [6]; 80 g/ha) was 90% and the “herbicidal activity VERPE” value (VERPE [10]; 80 g/ha) was 90%. The “herbicidal activity AMARE” value (AMARE [11]; 320 g/ha) was 80% and the “herbicidal activity VIOTR” value (VIOTR [13]; 80 g/ha) was 100%.

COC1Sc2c(C(=O)Nc3nnnn3C)ccc(C(F)(F)F)c2S1 (stereo not drawn) [Example 2-257] was tested, and the “herbicidal activity ABUTH” value (ABUTH [1]; 20 g/ha) was 90%, the “herbicidal activity ECHCG” value (ECHCG; 20 g/ha) was 100% and the “herbicidal activity VIOTR” value (VIOTR [13]; 20 g/ha) was 80%.

With CCn1nnnc1NC(=O)c1ccc(C(F)F)c2c1OCS2 [Example 3-53] the “herbicidal activity ABUTH” value (ABUTH [1]; 80 g/ha) was 90%, the “herbicidal activity STEME” value (STEME [2]) was 90% and the “herbicidal activity MATIN” value (MATIN [4]) was 80%. For the same compound, the “herbicidal activity SETVI” value (SETVI [5]; 80 g/ha) was 80%, the “herbicidal activity ECHCG” value (ECHCG; 80 g/ha) was 80% and the “herbicidal activity AMARE” value (AMARE [6]; 80 g/ha) was 100%. The “herbicidal activity VERPE” value (VERPE [10]; 80 g/ha) was 80%, the “herbicidal activity AMARE” value (AMARE [11]; 320 g/ha) was 90% and the “herbicidal activity VIOTR” value (VIOTR [12]; 320 g/ha) was 100%. The “herbicidal activity VIOTR” value (VIOTR [13]; 80 g/ha) was 90%.

With CC1Oc2c(C(=O)Nc3nnnn3C)ccc(C(F)(F)F)c2S1 (stereo not drawn) [Example 2-94, 2-methyl-4-(trifluoromethyl)-1,3-benzoxathiolane-N-(1-methyltetrazol-5-yl)-7-carboxamide] the “herbicidal activity ABUTH” value (ABUTH [1]; 80 g/ha) was 90%, the “herbicidal activity STEME” value (STEME [2]) was 100% and the “herbicidal activity SETVI” value (SETVI [5]; 80 g/ha) was 80%. For the same compound, the “herbicidal activity ECHCG” value (ECHCG; 80 g/ha) was 80%, the “herbicidal activity AMARE” value (AMARE [6]; 80 g/ha) was 90% and the “herbicidal activity SETVI” value (SETVI [7]) was 100%. For the same compound, the “herbicidal activity ABUTH” value (ABUTH [8]; 320 g/ha) was 90%, the “herbicidal activity AMARE” value (AMARE [11]; 320 g/ha) was 100% and the “herbicidal activity VIOTR” value (VIOTR [12]; 320 g/ha) was 100%. For the same compound, the “herbicidal activity VIOTR” value (VIOTR [13]; 80 g/ha) was 80% and the “herbicidal activity STEME” value (STEME [14]; 320 g/ha) was 100%.

With Cn1ncnc1NC(=O)c1ccc(C(F)(F)F)c2c1OC[S+]2[O-] (stereo not drawn) [Example 1-50] the “herbicidal activity ABUTH” value (ABUTH [1]; 20 g/ha) was 80%, the “herbicidal activity MATIN” value (MATIN [3]; 80 g/ha) was 90% and the “herbicidal activity AMARE” value (AMARE [6]; 20 g/ha) was 80%. The “herbicidal activity VIOTR” value (VIOTR [13]; 20 g/ha) was 80%.

In the case of CCOC1Oc2c(C(=O)Nc3nnnn3C)ccc(C(F)(F)F)c2S1 (stereo not drawn) [Example 2-130], the “herbicidal activity ABUTH” value (ABUTH [1]; 20 g/ha) is reported as 90%, the “herbicidal activity ABUTH” value (ABUTH [8]; 80 g/ha) is reported as 100% and the “herbicidal activity VIOTR” value (VIOTR [12]; 80 g/ha) is reported as 100%. For the same compound, the “herbicidal activity VIOTR” value (VIOTR [13]; 20 g/ha) was 90% and the “herbicidal activity STEME” value (STEME [14]; 80 g/ha) was 100%.

Cc1ccc(C(=O)Nc2nnnn2C)c2c1S(=O)(=O)CO2 [Example 2-80] was tested, and the “herbicidal activity STEME” value (STEME [2]) was 90%, the “herbicidal activity MATIN” value (MATIN [3]; 320 g/ha) was 80% and the “herbicidal activity MATIN” value (MATIN [4]) was 80%. For the same compound, the “herbicidal activity AMARE” value (AMARE [6]; 80 g/ha) was 90%, the “herbicidal activity AMARE” value (AMARE [11]; 320 g/ha) was 90% and the “herbicidal activity VIOTR” value (VIOTR [13]; 80 g/ha) was 90%.

Reference: patent US11897904B2, “Herbicidally active bicyclic benzamides” (Bayer Aktiengesellschaft, priority 2017, dated 2024)
